Experimental data: ChEMBL document CHEMBL5500353, “Discovery of novel amide derivatives as potent quorum sensing inhibitors of Pseudomonas aeruginosa” (Eur J Med Chem, 2024)
Active and inactive are the calls of the source. No cut-off for these calls is given here.

Assays:
[1] = Inhibition of quorum sensing system in Pseudomonas aeruginosa PAO1-lasB-gfp assessed as inhibition of lasB expression at 50 ug/ml incubated for 8 hrs under shaking condition by microplate reader based analysis relative to control; settings: dose 50.0 µg/ml
[2] = Inhibition of quorum sensing system in Pseudomonas aeruginosa PAO1-rhlA-gfp assessed as inhibition of rhlA expression at 50 ug/ml incubated for 8 hrs under shaking condition by microplate reader based analysis relative to control; settings: dose 50.0 µg/ml
[3] = Inhibition of quorum sensing system in Pseudomonas aeruginosa PAO1-pqsA-gfp assessed as inhibition of pqsA expression at 50 ug/ml incubated for 8 hrs under shaking condition by microplate reader based analysis relative to control; settings: dose 50.0 µg/ml
Pseudomonas aeruginosa [4] = assay: Downregulation of chiC mRNA expression in Pseudomonas aeruginosa PAO1 at 160 ug/ml incubated for 6 hrs by RT-qPCR analysis; format: functional; settings: dose 160.0 µg/ml
Pseudomonas aeruginosa [5] = assay: Antibacterial activity against Pseudomonas aeruginosa PAO1 at 80 ug/ml incubated for 48 hrs by absorbance based analysis; format: functional, organism-based; settings: dose 80.0 µg/ml
[6] = Cytotoxicity against human HepG2 cells assessed as inhibition of cell growth at 100 ug/ml measured after 48 hrs by CCK-8 method relative to control; format: toxicity, cell-based; settings: at 100 µg/mL
Pseudomonas aeruginosa [7] = assay: Antibacterial activity against Pseudomonas aeruginosa PAO1 at 80 to 160 ug/ml incubated for 48 hrs by absorbance based analysis; format: functional, organism-based; settings: dose 80-160 µg/ml
Pseudomonas aeruginosa [8] = assay: Anti-virulence activity in Pseudomonas aeruginosa PAO1 assessed as reduction in elastase production at 160 ug/ml by congo red dye based microplate reader analysis; format: functional, organism-based; settings: dose 160.0 µg/ml
Pseudomonas aeruginosa [9] = assay: Anti-virulence activity in Pseudomonas aeruginosa PAO1 assessed as reduction in rhamnolipid production at 160 ug/ml incubated for 48 hrs by absorbance based analysis; format: functional, organism-based; settings: dose 160.0 µg/ml
Pseudomonas aeruginosa [10] = assay: Anti-virulence activity in Pseudomonas aeruginosa PAO1 assessed as reduction in pyocyanin production at 160 ug/ml by absorbance based analysis; format: functional, organism-based; settings: dose 160.0 µg/ml
Pseudomonas aeruginosa [11] = assay: Anti-virulence activity in Pseudomonas aeruginosa PAO1 assessed as reduction in pyoverdine production at 160 ug/ml by absorbance based analysis; format: functional, organism-based; settings: dose 160.0 µg/ml
Pseudomonas aeruginosa [12] = assay: Antibiofilm activity against Pseudomonas aeruginosa PAO1 assessed as reduction in biofilm production at 160 ug/ml incubated for 72 hrs by crystal violet staining based analysis; format: functional, organism-based; settings: dose 160.0 µg/ml
Pseudomonas aeruginosa [13] = assay: Anti-motility activity against Pseudomonas aeruginosa PAO1 assessed as reduction in swarming at 160 ug/ml incubated for 12 hrs; format: functional, organism-based; settings: dose 160.0 µg/ml
[14] = Cytotoxicity against human HepG2 cells assessed as inhibition of cell growth at 10 ug/ml measured after 48 hrs by CCK-8 method relative to control; format: toxicity, cell-based; settings: at 10 µg/mL
Pseudomonas aeruginosa [15] = assay: Antibacterial activity against Pseudomonas aeruginosa infected in Galleria mellonella larvae infection model assessed as increase in survival rate at 160 ug/ml preincubated with measured after 72 hrs; format: functional, organism-based; settings: dose 160.0 µg/ml
Pseudomonas aeruginosa [16] = assay: Downregulation of lasR mRNA expression in Pseudomonas aeruginosa PAO1 at 160 ug/ml incubated for 6 hrs by RT-qPCR analysis; format: functional; settings: dose 160.0 µg/ml
Pseudomonas aeruginosa [17] = assay: Downregulation of lasA mRNA expression in Pseudomonas aeruginosa PAO1 at 160 ug/ml incubated for 6 hrs by RT-qPCR analysis; format: functional; settings: dose 160.0 µg/ml
Pseudomonas aeruginosa [18] = assay: Downregulation of lasB mRNA expression in Pseudomonas aeruginosa PAO1 at 160 ug/ml incubated for 6 hrs by RT-qPCR analysis; format: functional; settings: dose 160.0 µg/ml
Pseudomonas aeruginosa [19] = assay: Downregulation of lasl-mRNA expression in Pseudomonas aeruginosa PAO1 at 160 ug/ml incubated for 6 hrs by RT-qPCR analysis; format: functional; settings: dose 160.0 µg/ml
Pseudomonas aeruginosa [20] = assay: Downregulation of pqsA mRNA expression in Pseudomonas aeruginosa PAO1 at 160 ug/ml incubated for 6 hrs by RT-qPCR analysis; format: functional; settings: dose 160.0 µg/ml
Pseudomonas aeruginosa [21] = assay: Downregulation of pqsR mRNA expression in Pseudomonas aeruginosa PAO1 at 160 ug/ml incubated for 6 hrs by RT-qPCR analysis; format: functional; settings: dose 160.0 µg/ml
Pseudomonas aeruginosa [22] = assay: Downregulation of rhll-mRNA expression in Pseudomonas aeruginosa PAO1 at 160 ug/ml incubated for 6 hrs by RT-qPCR analysis; format: functional; settings: dose 160.0 µg/ml
Pseudomonas aeruginosa [23] = assay: Downregulation of rhlR mRNA expression in Pseudomonas aeruginosa PAO1 at 160 ug/ml incubated for 6 hrs by RT-qPCR analysis; format: functional; settings: dose 160.0 µg/ml
Pseudomonas aeruginosa [24] = assay: Downregulation of phzM mRNA expression in Pseudomonas aeruginosa PAO1 at 160 ug/ml incubated for 6 hrs by RT-qPCR analysis; format: functional; settings: dose 160.0 µg/ml
[25] = target: T1, Transcriptional activator protein LasR (Pseudomonas aeruginosa (strain ATCC 15692 / PAO1 / 1C / PRS 101 / LMG12228), UniProt P25084); assay: Binding affinity to Pseudomonas aeruginosa PAO1 LasR assessed as dissociation constant by SPR analysis
T1 sequence (P25084 whole entry): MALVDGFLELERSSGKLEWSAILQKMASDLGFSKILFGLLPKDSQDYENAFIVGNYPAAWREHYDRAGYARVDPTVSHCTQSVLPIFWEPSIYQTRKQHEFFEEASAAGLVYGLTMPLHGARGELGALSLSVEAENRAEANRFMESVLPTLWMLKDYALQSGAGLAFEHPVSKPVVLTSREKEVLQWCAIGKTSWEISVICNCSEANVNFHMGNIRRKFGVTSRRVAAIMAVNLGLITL

[26] = target: T2, Transcriptional regulator MvfR (Pseudomonas aeruginosa PA14, UniProt A0A072ZLE6); assay: Binding affinity to Pseudomonas aeruginosa PAO1 PqsR expressed in Escherichia coli BL21 assessed as dissociation constant by SPR analysis
T2 sequence (A0A072ZLE6 whole entry): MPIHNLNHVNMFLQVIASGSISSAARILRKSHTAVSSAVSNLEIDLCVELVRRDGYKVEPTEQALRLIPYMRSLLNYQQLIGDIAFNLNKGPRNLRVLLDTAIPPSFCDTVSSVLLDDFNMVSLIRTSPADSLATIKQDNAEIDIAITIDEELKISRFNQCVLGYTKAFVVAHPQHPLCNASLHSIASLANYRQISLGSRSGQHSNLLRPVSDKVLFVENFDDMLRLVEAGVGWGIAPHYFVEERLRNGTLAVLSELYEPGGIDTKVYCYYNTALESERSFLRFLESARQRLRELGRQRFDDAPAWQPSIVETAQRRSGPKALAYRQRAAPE

CCCCCC(=O)NCC(C)(C)O
inhibition [1]: 32.4%
inhibition [2]: 54.9%

C=C(C)CNC(=O)CCCC
inhibition [1]: 72.2%
inhibition [2]: 76.9%
inhibition [3]: 26%

CCCCC(=O)NCC(C)(C)O
inhibition [1]: 40%
inhibition [2]: 55.8%
inhibition [3]: 1.47%

CCC(=O)NCC(C)C
inhibition [1]: 54.6%
inhibition [2]: 71%
inhibition [3]: 27.8%

CCC/C=C/C(=O)NCC(C)(C)O
inhibition [1]: 34.5%
inhibition [2]: 50.1%

CCCC(=O)NCC(C)C
inhibition [1]: 65.7%
inhibition [2]: 65.4%
inhibition [3]: 29.8%

CCC/C=C/C(=O)NCC(C)C
inhibition [1]: 64.1%
inhibition [2]: 80.5%
inhibition [3]: 26.5%
Activity (Pseudomonas aeruginosa [4]): Active

C=CCSSCC=C [DIALLYLDISULFIDE]
inhibition [1]: 36.1%
inhibition [2]: 38%
inhibition [3]: 34.6%
Activity (Pseudomonas aeruginosa [5]): inactive
inhibition at 48 h, 100 ug/ml [6]: 18.1%

C=CC(=O)NCC(=C)C
inhibition [1]: 54.7%
inhibition [2]: 63.9%
inhibition [3]: 2.45%

CCCCCCC(=O)NCC(C)(C)O
inhibition [1]: 13.1%
inhibition [2]: 18.1%

C/C=C/C(=O)NCC(C)C
inhibition [1]: 63.7%
inhibition [2]: 72.3%
inhibition [3]: 27.8%

C/C=C/C(=O)NCC(C)(C)O
inhibition [1]: 29.9%
inhibition [2]: 41.9%

CC/C=C/C(=O)NCC(C)C
inhibition [1]: 71.5%
inhibition [2]: 72.7%
inhibition [3]: 26.2%

CCCCC(=O)NCC(C)C
inhibition [1]: 77.2%
inhibition [2]: 65.8%
inhibition [3]: 30.2%

C=C(C)CNC(=O)/C=C/C
inhibition [1]: 67.5%
inhibition [2]: 80%
inhibition [3]: 38%

C=C(C)CNC(=O)CCCCCC
inhibition [1]: 61.6%
inhibition [2]: 68.4%
inhibition [3]: 42.5%

C=C(C)CNC(=O)CCC
inhibition [1]: 61.5%
inhibition [2]: 64.5%
inhibition [3]: 38.1%

CC/C=C/C(=O)NCC(C)(C)O
inhibition [1]: 53.1%
inhibition [2]: 58.1%
inhibition [3]: -8.67%

CC(=O)NCC(C)(C)O
inhibition [1]: 1.11%
inhibition [2]: 13.8%

C=CC(=O)NCC(C)C
inhibition [1]: 55.1%
inhibition [2]: 68.6%
inhibition [3]: 12.6%

C=C(C)CNC(=O)CCCCC
inhibition [1]: 72.7%
inhibition [2]: 79.7%
inhibition [3]: 36.1%

C=CC(=O)NCC(C)(C)O
inhibition [1]: 6.82%
inhibition [2]: 29.7%
inhibition [3]: 0.28%

C=C(C)CNC(C)=O
inhibition [1]: 10.5%
inhibition [2]: 10.2%
inhibition [3]: 59.1%

C/C=C/C=C/C(=O)NCC(C)(C)O
inhibition [1]: 26.3%
inhibition [2]: 32.4%

CC(=O)NCC(C)C
inhibition [1]: 13.8%
inhibition [2]: 18.9%
inhibition [3]: 11%

CCCCCC(=O)NCC(C)C
inhibition [1]: 70%
inhibition [2]: 72.4%
inhibition [3]: 13.6%

CCCC(=O)NCC(C)(C)O
inhibition [1]: 37.4%
inhibition [2]: 43.1%
inhibition [3]: -6.15%

CCC(=O)NCC(C)(C)O
inhibition [1]: 7.26%
inhibition [2]: 28.3%

C/C=C/C=C/C(=O)NCC(C)C
inhibition [1]: 82.2%
inhibition [2]: 84.1%
inhibition [3]: 65.5%
Activity (Pseudomonas aeruginosa [7]): inactive
Activity (Pseudomonas aeruginosa [8]): Active
Activity (Pseudomonas aeruginosa [9]): Active
Activity (Pseudomonas aeruginosa [10]): Active
Activity (Pseudomonas aeruginosa [11]): Active
Activity (Pseudomonas aeruginosa [12]): Active
Activity (Pseudomonas aeruginosa [13]): Active
inhibition at 48 h, 100 ug/ml [6]: 30.1%
inhibition at 48 h, 10 ug/ml [14]: -2.16%
Activity (Pseudomonas aeruginosa [15]): Active
Activity (Pseudomonas aeruginosa [16]): inactive
Activity (Pseudomonas aeruginosa [17]): Active
Activity (Pseudomonas aeruginosa [18]): Active
Activity (Pseudomonas aeruginosa [19]): Active
Activity (Pseudomonas aeruginosa [20]): Active
Activity (Pseudomonas aeruginosa [21]): inactive
Activity (Pseudomonas aeruginosa [22]): Active
Activity (Pseudomonas aeruginosa [23]): Active
Activity (Pseudomonas aeruginosa [24]): Active
Kd [25]: 1.23 mM
Kd [26]: 8.36 µM

CCCCCCC(=O)NCC(C)C
inhibition [1]: 2.28%
inhibition [2]: 8.21%
inhibition [3]: 5.99%

C=C(C)CNC(=O)/C=C/C=C/C
inhibition [1]: 38.9%
inhibition [2]: 56.8%
inhibition [3]: 11.8%

C=C(C)CNC(=O)/C=C/CCC
inhibition [1]: 77.1%
inhibition [2]: 85%
inhibition [3]: 40%
Activity (Pseudomonas aeruginosa [7]): inactive
Activity (Pseudomonas aeruginosa [8]): Active
Activity (Pseudomonas aeruginosa [9]): Active
Activity (Pseudomonas aeruginosa [10]): Active
Activity (Pseudomonas aeruginosa [11]): Active
Activity (Pseudomonas aeruginosa [12]): Active
Activity (Pseudomonas aeruginosa [13]): Active
inhibition at 48 h, 100 ug/ml [6]: 18.9%
inhibition at 48 h, 10 ug/ml [14]: 9.91%
Activity (Pseudomonas aeruginosa [15]): Active
Activity (Pseudomonas aeruginosa [16]): inactive
Activity (Pseudomonas aeruginosa [17]): Active
Activity (Pseudomonas aeruginosa [18]): Active
Activity (Pseudomonas aeruginosa [19]): Active
Activity (Pseudomonas aeruginosa [20]): Active
Activity (Pseudomonas aeruginosa [21]): inactive
Activity (Pseudomonas aeruginosa [22]): Active
Activity (Pseudomonas aeruginosa [23]): Active
Activity (Pseudomonas aeruginosa [24]): Active
Activity (Pseudomonas aeruginosa [4]): Active
